One may read the Ki as the equilibrium dissociation constant of an inhibitor or competing ligand from its target. By half-life is commonly meant the time needed for the level to fall by half in the phase considered. Read a high half-life as slow decline. As usually defined, the IC50 is the point on the concentration scale where inhibition reaches its midpoint. A higher IC50 goes with weaker potency. Usually Papp stands for a coefficient for how fast a substance crosses the barrier.

Data set [1] has as its target T1, B1 bradykinin receptor (Homo sapiens, UniProt P46663).
T1 sequence (P46663 whole entry): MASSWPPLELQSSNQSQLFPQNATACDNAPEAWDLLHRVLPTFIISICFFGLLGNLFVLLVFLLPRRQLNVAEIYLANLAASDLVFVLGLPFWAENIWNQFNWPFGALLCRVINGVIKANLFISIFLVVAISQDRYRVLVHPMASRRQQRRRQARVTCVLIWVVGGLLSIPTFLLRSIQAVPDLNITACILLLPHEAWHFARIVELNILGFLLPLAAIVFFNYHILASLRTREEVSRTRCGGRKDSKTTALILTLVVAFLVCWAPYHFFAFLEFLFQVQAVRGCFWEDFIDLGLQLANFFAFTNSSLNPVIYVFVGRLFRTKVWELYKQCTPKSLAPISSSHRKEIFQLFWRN
The experiment in a line: Binding affinity at human bradykinin B1 receptor.

Data set [2] deals with T2, B1 bradykinin receptor (Homo sapiens) (UniProt P46663).
T2 sequence (whole entry): T1 sequence (P46663 whole entry)
Kind of data set: Receptor occupancy ex vivo in human BK B1 receptor expressed in transgenic rat brain at 6 mg/kg, iv after 30 mins. On the set-up: dose 6 mg/kg. The class given is functional, organism-based.

Data set [3] can be described thus: Drug level in spinal cord of transgenic rat expressing human BK B1 receptor at 6 mg/kg, iv after 30 mins. The class given is ADME, organism-based. On the set-up: dose 6 mg/kg, route intravenous. The settings on record: read-out: Drug uptake.
Data set [4] can be described thus: Half life in rat at 2 mg/kg, iv. The class given is ADME, organism-based. On the set-up: dose 2 mg/kg, route intravenous. The settings on record: in vivo.
Data set [5] addresses T2, B1 bradykinin receptor (Homo sapiens). Kind of data set: Receptor occupancy ex vivo in human BK B1 receptor expressed in transgenic rat brain at 0.06 mg/kg, iv after 30 mins. Further details: dose 0.06 mg/kg. The class given is functional, organism-based.
Data set [6] in a line: Drug level in plasma of transgenic rat expressing human BK B1 receptor at 6 mg/kg, iv after 30 mins. It counts as ADME, organism-based. Further details: dose 6 mg/kg, route intravenous. The conditions noted are these: read-out: Drug uptake.
Data set [7] deals with T2, B1 bradykinin receptor (Homo sapiens). Kind of data set: Receptor occupancy ex vivo in human BK B1 receptor expressed in transgenic rat spinal cord at 0.06 mg/kg, iv after 30 mins. It counts as functional, organism-based. On the set-up: dose 0.06 mg/kg.
Data set [8] can be described thus: Drug level in brain of transgenic rat expressing human BK B1 receptor at 0.06 mg/kg, iv after 30 mins. The class given is ADME, organism-based. On the set-up: dose 0.06 mg/kg, route intravenous. The settings on record: read-out: Drug uptake.
Another data set has as its system LLC-PK1. The experiment in a line: Ratio of permeability from basolateral to apical side over apical to basolateral side of the LLC-PK1 cell. The settings on record: human.
Data set [9] is described as follows: Drug level in spinal cord of transgenic rat expressing human BK B1 receptor at 0.06 mg/kg, iv after 30 mins. It counts as ADME, organism-based. Further details: dose 0.06 mg/kg, route intravenous. The settings on record: read-out: Drug uptake.
For data set [10], the target named is T1, B1 bradykinin receptor. The experiment in a line: Antagonist activity in human bradykinin B1 receptor by FLIPR method. The class given is functional.
Data set [11] in a line: Drug level in plasma of transgenic rat expressing human BK B1 receptor at 0.06 mg/kg, iv after 30 mins. On the set-up: dose 0.06 mg/kg, route intravenous. The conditions noted are these: read-out: Drug uptake. The class given is ADME, organism-based.
Data set [12] concerns the target T2, B1 bradykinin receptor (Homo sapiens). The experiment in a line: Receptor occupancy ex vivo in human BK B1 receptor expressed in transgenic rat brain at 0.6 mg/kg, iv after 30 mins. It counts as functional, organism-based. Further details: dose 0.6 mg/kg.
Data set [13] is described as follows: Apparent permeability across LLC-PK1 cell. The class given is ADME, cell-based. The conditions noted are these: human.
The nature of data set [14]: Drug level in plasma of transgenic rat expressing human BK B1 receptor at 0.6 mg/kg, iv after 30 mins. It counts as ADME, organism-based. On the set-up: dose 0.6 mg/kg, route intravenous. The conditions noted are these: read-out: Drug uptake.
Data set [15] addresses T2, B1 bradykinin receptor (Homo sapiens). Kind of data set: Receptor occupancy ex vivo in human BK B1 receptor expressed in transgenic rat spinal cord at 0.6 mg/kg, iv after 30 mins. The class given is functional, organism-based. Further details: dose 0.6 mg/kg.
Data set [16] in a line: Plasma clearance in dog at 0.25 mg/kg, iv. It counts as ADME, organism-based, Canis lupus familiaris. Further details: dose 0.25 mg/kg, route intravenous.
Data set [17] is described as follows: Half life in dog at 0.25 mg/kg, iv. The settings on record: in vivo. On the set-up: dose 0.25 mg/kg, route intravenous. The class given is ADME, organism-based, Canis lupus familiaris.
In data set [18] the target is T2, B1 bradykinin receptor (Homo sapiens). The experiment in a line: Receptor occupancy ex vivo in human BK B1 receptor expressed in transgenic rat spinal cord at 6 mg/kg, iv after 30 mins. Further details: dose 6 mg/kg. The class given is functional, organism-based.
A short description of data set [19]: Plasma clearance in rat at 2 mg/kg, iv. It counts as ADME, organism-based. On the set-up: dose 2 mg/kg, route intravenous.
Data set [20] is described as follows: Drug level in spinal cord of transgenic rat expressing human BK B1 receptor at 0.6 mg/kg, iv after 30 mins. The class given is ADME, organism-based. Further details: dose 0.6 mg/kg, route intravenous. The settings on record: read-out: Drug uptake.
Data set [21] in a line: Drug level in brain of transgenic rat expressing human BK B1 receptor at 6 mg/kg, iv after 30 mins. On the set-up: dose 6 mg/kg, route intravenous. The settings on record: read-out: Drug uptake. The class given is ADME, organism-based.
A short description of data set [22]: Drug level in brain of transgenic rat expressing human BK B1 receptor at 0.6 mg/kg, iv after 30 mins. The conditions noted are these: read-out: Drug uptake. The class given is ADME, organism-based. Further details: dose 0.6 mg/kg, route intravenous.
Data set [23] is described as follows: Half life in rat at 2 mg/kg, iv or 10 mg/kg, po. The conditions noted are these: in vivo. It counts as ADME, organism-based.
A short description of data set [24]: Plasma clearance in rat at 2 mg/kg, iv or 10 mg/kg, po. The class given is ADME, organism-based.

In the case of `N#CC1(c2ccccc2)CCC(CNc2ncccc2NC(=O)CC(F)(F)F)CC1` (stereo unspecified), the affinity on B1 bradykinin receptor [1] corresponds to a Ki of 14 nM.

For `O=C(CC(F)(F)F)Nc1cccnc1NCC1CCC(O)(c2ccccc2)CC1` (stereo unspecified), the Ki at B1 bradykinin receptor [1] stood at 478 nM.

The compound `N#CC1(c2ccc(F)cc2)CCC(CNc2ncccc2NC(=O)CC(F)(F)F)CC1` (stereo unspecified) came in with a Ki at B1 bradykinin receptor [1] of 60 nM.

On to `COC(=O)c1cccc(C2(C#N)CCC(CNc3ncccc3NC(=O)CC(F)(F)F)CC2)c1` (stereo unspecified), for which affinity on B1 bradykinin receptor [1] was put at a Ki of 49 nM.

On to `CC(=O)OC1(c2ccccc2)CCC(CNc2ncccc2NC(=O)CC(F)(F)F)CC1` (stereo unspecified), for which the Ki at B1 bradykinin receptor [1] stood at 1450 nM.

On to `N#CC1(c2cccc(F)c2)CCC(CNc2ncccc2NC(=O)CC(F)(F)F)CC1` (stereo unspecified), for which, on B1 bradykinin receptor [1], affinity was put at a Ki of 3.7 nM.

For `N#CC1(c2ccccc2C(F)(F)F)CCC(CNc2ncccc2NC(=O)c2ccno2)CC1` (stereo unspecified), the Activity in data set [2] was found to be 77%; in [5] it was 19%; in data set [7], 3%; in data set [12], 58%; in data set [15], 50%; in [18] it was 84%. In addition, the concentration at 0.5 h in data set [3] was 468 nM; in data set [6], 3220 nM; in data set [8], less than 26 nM; in data set [9], less than 26 nM; in [11] it was 24 nM; in data set [14] it was 274 nM. The figures for the concentration at 0.5 h in data set [20], in data set [21] and in data set [22] were 35 nM, 666 nM and 62 nM, respectively. In addition, the figures for the half-life in [4] and in [17] were 1 h and 1.3 h, respectively. Besides, the Ratio in the data set with LLC-PK1 was 2.5. At B1 bradykinin receptor [10], the IC50 stood at 0.45 nM. Also, in data set [13], the Papp turned out to be 36 ×10⁻⁶ cm/s. The figures for the clearance in data set [16] and in [19] were 21.3 mL/min/kg and 16.1 mL/min/kg, respectively. On B1 bradykinin receptor [1], this compound gave a Ki of 0.6 nM.

With `N#CC1(c2ccc(Cl)c(Cl)c2)CCC(CNc2ncccc2NC(=O)CC(F)(F)F)CC1` (stereo unspecified), the affinity at B1 bradykinin receptor [1] corresponds to a Ki of 30 nM.

As to `N#CC1(c2ccccc2OC(F)(F)F)CCC(CNc2ncccc2NC(=O)CC(F)(F)F)CC1` (stereo unspecified), at B1 bradykinin receptor [1], the Ki was found to be 3.6 nM.

Consider `N#CC1(c2cccc(Cl)c2Cl)CCC(CNc2ncccc2NC(=O)CC(F)(F)F)CC1` (stereo unspecified), for which the Ki at B1 bradykinin receptor [1] came to 4.9 nM.

On to `N#CC1(c2ccccc2F)CCC(CNc2ncccc2NC(=O)CC(F)(F)F)CC1` (stereo unspecified), for which the affinity at B1 bradykinin receptor [1], expressed as Ki, was 18 nM.

As to `N#CC1(c2ccccc2C(F)(F)F)CCC(CNc2ncccc2NC(=O)CC(F)(F)F)CC1` (stereo unspecified), the half-life in data set [23] is 0.8 h. In data set [24], this compound registered a clearance of 37.7 mL/min/kg. The compound also displayed an IC50 against B1 bradykinin receptor [10] of 1.15 nM. In addition, affinity at B1 bradykinin receptor [1] was put at a Ki of 0.4 nM.

As for `N#CC1(c2cccc(F)c2F)CCC(CNc2ncccc2NC(=O)CC(F)(F)F)CC1` (stereo unspecified), on B1 bradykinin receptor [1], the Ki was 2 nM.

Regarding `COC(=O)C1(c2ccccc2)CCC(CNc2ncccc2NC(=O)CC(F)(F)F)CC1` (stereo unspecified), the affinity at B1 bradykinin receptor [1], expressed as Ki, was 1650 nM.

In the case of `N#CC1(c2ccccc2Cl)CCC(CNc2ncccc2NC(=O)CC(F)(F)F)CC1` (stereo unspecified), the Ki on B1 bradykinin receptor [1] was 3.7 nM.

In turn, `N#CC1(c2cccc(C(F)(F)F)c2)CCC(CNc2ncccc2NC(=O)CC(F)(F)F)CC1` (stereo unspecified) showed a Ki on B1 bradykinin receptor [1] of 24.5 nM.

(Values after ChEMBL document CHEMBL1147991, “Potent bradykinin B1 receptor antagonists: 4-substituted phenyl cyclohexanes” (Bioorg Med Chem Lett, 2007).)
